Structures can show the parent of a compound that is named as a salt.
Experiments:
[1] = system: depressant effects induced by tetrabenazine; assay: Antitetrabenazine test in mice (blocking of tetrabenazine-induced depressant effects); type: in vivo; details: Mus musculus, ip, compound intraperitoneally, tetrabenazine intravenously
From the text: Compounds preferred for their antidepressant activity have the formula: [drawing 4] Illustrative of the antidepressant activity of compounds of Formula Ia are the effective dosages determined by the foregoing anti-tetrabenazine test.

cardiac arrhythmia = assay: Counteracting of ouabain-induced cardiac arrhythmia in anesthetized dogs; type: in vivo, adult mongrel dogs
Procedure: The procedure is carried out under barbiturate anesthesia using adult mongrel dogs of either sex weighing from 8 to 14 kg. A Grass Model 7 polygraph was used for recording femoral arterial blood pressure (Statham P23AC Transducer) and the electrocardiogram (Grass 7P4 Preamplifier). Ouabian was given intravenously in an initial dose of 40γ/kg in a second dose of 20γ/kg, given 30 minutes after the first dose, and in subsequent doses of 10γ/kg which were repeated at 15 minute intervals as required for producing cardiac arrhythmias that persisted for at least 15 minutes. When the arrhythmias were established the test compounds were administered by infusion (Harvard Model 942 Infusion Pump) into a femoral vein at a rate of 1 mg/kg/min. Concentrations of compounds were adjusted according to the weight of the dog to allow a volume infusion of 1 ml/min. Compounds that are considered to be active as antiarrhythmic agents cause reversion to sinus rhythm which is maintained for at least 60 minutes.

Row | SMILES | ED50 [1] | minimal effective dose (cardiac arrhythmia; Canis lupus familiaris, iv, 1 h, barbiturate anesthesia, ouabain arrhythmia, infusion into femoral vein 1 mg/kg/min, reversion to sinus rhythm maintained at least 60 minutes, read-out: antiarrhythmic activity, minimum effective dose) | antiarrhythmic activity (in words) (cardiac arrhythmia; ouabain-induced arrhythmia)
1 | CN1C[C@@H](O)[C@H](Oc2ccccc2)C1 (relative stereo) [Example 3, Trans-1-methyl-4-phenoxy-3-pyrrolidinol] | 3.7 mg/kg | – | –
2 | CCN1C[C@@H](O)[C@H](Oc2ccccc2)C1 (relative stereo) [Example 46, Trans-1-ethyl-4-phenoxy-3-pyrrolidinol Oxalate Hydrate (4:1)] | 3.5 mg/kg | – | –
3 | CCN1C[C@@H](O)[C@H](Oc2ccccc2Cl)C1 (relative stereo) [Example 48, Trans-4-(2-chlorophenoxy)-1-ethyl-3-pyrrolidinol Hydrochloride] | 2.8 mg/kg | – | –
4 | CCN1C[C@@H](O)[C@H](Oc2c(Cl)cccc2Cl)C1 (relative stereo) [Example 49, Trans-4-(2,6-dichlorophenoxy)-1-ethyl-3-pyrrolidinol Hydrochloride] | 4.8 mg/kg | – | –
5 | CCN1C[C@@H](O)[C@H](Oc2cccc3ccccc23)C1 (relative stereo) [Example 55, Trans-1-ethyl-4-(1-naphthalenyloxy)-3-pyrrolidinol Hydrochloride] | – | 10.7 mg/kg | exceptional antharrhythmic activity

— patent US4452809A, “Trans-4-(2-chlorophenoxy)-1-ethyl-3-pyrrolidinol and anti-depressant use thereof” (A. H. Robins Company, Inc., priority 1983, dated 1984)
